Results on 1 molecule are retold here after patent US10570155B2, “Imidazooxazole derivative having antitumor effect, and pharmaceutical composition including same” (KOREA INSTITUTE OF SCIENCE AND TECHNOLOGY, priority 2016, dated 2020).

Molecules are shown by their SMILES.

Test [1] has as its system SK-MEL-28. As to the kind of experiment: NCI cancer cell line panel screening (SRB), melanoma cell line SK-MEL-28. Type of test: cell-based, human. The note with it: Homo sapiens, read-out: IC50 against melanoma cell line in vitro. Here is the method:
According to the standard protocol (http://dtp.nci.nih.gov/dtpstandard/dwindex/index.isp) of the US National Cancer Institute (NCI) (www.dtp.nci.nih.gov), screening of a cancer cell line panel was performed. […] For a general screening experiment, cells were inoculated in 96-well microtiter plates in 100 μl at a plating density ranging from 5000 cells/well to 40,000 cells/well depending on the doubling time of individual cell lines. After cell inoculation, the microtiter plates were incubated at 37° C., 5% CO2, 95% air, and 100% relative humidity for 24 hours prior to addition of test compounds. 24 hours later, two plates of each cell line were fixed in situ with trichloroacetic acid (TCA) to measure the cell population for each cell line at the time of test compound addition (Tz). Test compounds were solubilized in dimethyl sulfoxide at 400-fold the intended final maximum test concentration, and stored frozen prior to use. At the time of compound addition, an aliquot of frozen concentrate was thawed and diluted to twice the intended final maximum test concentration with a complete medium containing 50 μg/ml of gentamicin. Additional four concentration of 10-fold or ½ log serial dilutions were made to provide a total of five compound concentrations plus control. Aliquots of 100 μl of these different compound dilutions were added to appropriate microtiter wells already containing 100 μl of medium, resulting in the required final compound concentrations.
Following compound addition, the plates were incubated for additional 48 hours at 37° C., 5% CO2, 95% air, and 100% relative humidity. For adherent cells, the assay was terminated by the addition of cold TCA. Cells were fixed in situ by the gentle addition of 50 μl of cold 50% (w/v) TCA (final concentration, 10% TAC) and incubated at 4° C. for 60 minutes. The supernatant was discarded, and the plates were washed five times with tap water and air-dried. A sulforhodamine B (SRB) solution (100 μl) at 0.4% (w/v) in 1% acetic acid was added to each well, and plates were incubated at room temperature for 10 minutes. After staining, unbound dye was removed by washing five times with 1% acetic acid and the plates were air-dried. […] For suspension cells, the methodology was the same except that the assay was terminated by fixing settled cells at the bottom of the wells by gently adding 50 μl of 80% TCA (final concentration, 16% TCA). Using the seven absorbance measurements [time zero (Tz), control growth (C), and test growth rate in the presence of compound at the five concentration levels (Ti)], the growth percentage was calculated at each of the compound concentration levels. Growth inhibition percentage was calculated as follows: [(Ti−Tz)/(C−Tz)]×100 for concentrations for which Ti>/=Tz [(Ti−Tz)/Tz]×100 for concentrations for which Ti<Tz.

In test [2] the test system is M14. The test is described as follows: NCI cancer cell line panel screening (SRB), melanoma cell line M14. Type of test: cell-based. The note with it: Homo sapiens, read-out: IC50 against melanoma cell line in vitro. How it is done:
(§1) According to the standard protocol (http://dtp.nci.nih.gov/dtpstandard/dwindex/index.isp) of the US National Cancer Institute (NCI) (www.dtp.nci.nih.gov), screening of a cancer cell line panel was performed. Briefly, human cell lines were allowed to grow in an RPMI 1640 medium containing 5% FBS and 2 mM L-glutamine. For a general screening experiment, cells were inoculated in 96-well microtiter plates in 100 μl at a plating density ranging from 5000 cells/well to 40,000 cells/well depending on the doubling time of individual cell lines. After cell inoculation, the microtiter plates were incubated at 37° C., 5% CO2, 95% air, and 100% relative humidity for 24 hours prior to addition of test compounds. 24 hours later, two plates of each cell line were fixed in situ with trichloroacetic acid (TCA) to measure the cell population for each cell line at the time of test compound addition (Tz). Test compounds were solubilized in dimethyl sulfoxide at 400-fold the intended final maximum test concentration, and stored frozen prior to use. At the time of compound addition, an aliquot of frozen concentrate was thawed and diluted to twice the intended final maximum test concentration with a complete medium containing 50 μg/ml of gentamicin. Additional four concentration of 10-fold or ½ log serial dilutions were made to provide a total of five compound concentrations plus control. Aliquots of 100 μl of these different compound dilutions were added to appropriate microtiter wells already containing 100 μl of medium, resulting in the required final compound concentrations.
(§2) Following compound addition, the plates were incubated for additional 48 hours at 37° C., 5% CO2, 95% air, and 100% relative humidity. For adherent cells, the assay was terminated by the addition of cold TCA. Cells were fixed in situ by the gentle addition of 50 μl of cold 50% (w/v) TCA (final concentration, 10% TAC) and incubated at 4° C. for 60 minutes. The supernatant was discarded, and the plates were washed five times with tap water and air-dried. A sulforhodamine B (SRB) solution (100 μl) at 0.4% (w/v) in 1% acetic acid was added to each well, and plates were incubated at room temperature for 10 minutes. After staining, unbound dye was removed by washing five times with 1% acetic acid and the plates were air-dried. Bound stain was subsequently solubilized with 10 mM Trizma base, and the absorbance was read on an automated plate reader at a wavelength of 515 nm. For suspension cells, the methodology was the same except that the assay was terminated by fixing settled cells at the bottom of the wells by gently adding 50 μl of 80% TCA (final concentration, 16% TCA). Using the seven absorbance measurements [time zero (Tz), control growth (C), and test growth rate in the presence of compound at the five concentration levels (Ti)], the growth percentage was calculated at each of the compound concentration levels. Growth inhibition percentage was calculated as follows: [(Ti−Tz)/(C−Tz)]×100 for concentrations for which Ti>/=Tz [(Ti−Tz)/Tz]×100 for concentrations for which Ti<Tz.

Test [3] has as its system MDA-MB-435. As to the kind of experiment: NCI cancer cell line panel screening (SRB), melanoma cell line MDA-MB-435. The note with it: Homo sapiens, read-out: IC50 against melanoma cell line in vitro. Type of test: cell-based. How it is done:
as §1, §2

Test [4] deals with A375. As to the kind of experiment: NCI cancer cell line panel screening (SRB), melanoma cell line A375. Type of test: cell-based. The note with it: Homo sapiens, A-375, read-out: IC50 against melanoma cell line in vitro. Here is the method: as §1, §2
Test [5] has as its system UACC-62. As to the kind of experiment: NCI cancer cell line panel screening (SRB), melanoma cell line UACC-62. Type of test: cell-based. The note with it: Homo sapiens, read-out: IC50 against melanoma cell line in vitro. Here is the method: as §1, §2

A word on the IC50: it is the concentration needed to halve the response being measured.

`CCN1CCN(CCNc2nccc(-c3c(-c4cccc(O)c4)nc4occn34)n2)S1(=O)=O` [2II, 2-Ethyl-5-(2-((4-(6-(3-hydroxylphenyl)imidazo[2,1-b]oxazol-5-yl)pyrimidin-2-yl)amino)ethyl)-1,2,5-thiadiazolidine 1,1-dioxide]: the IC50 is 130 nM in test [1]; 140 nM in test [2]; 370 nM in test [3]; 190 nM in test [4]; 70 nM in test [5].
